In PubChem BioAssay AID270 (DTP/NCI, 2004):
“And” between values parts separate entries of the source, which are not always exact repeats. Identical values can stand only once. Inconclusive results are not listed.

System: BDF1 mice, s.c. Lewis lung carcinoma, T/C %
Assay: NCI In Vivo Anticancer Drug Screen. Data for tumor model Lewis Lung Carcinoma (subcutaneous) in B6D2F1 (BDF1) mice
Method in brief: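 First, mice carry a transplantable tumor. Next, groups receive either compound or vehicle. Finally, survival or tumor dimensions in the dosed animals are divided by the corresponding control figure.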

In the case of `Nc1ccc(OC(=O)Oc2ccc(N)cc2)cc1`, the T/C (endpoint: mean tumor weight, dose: 31.3 mg/kg/injection, schedule: Q01DX011 (ip), vehicle: saline, higher = larger tumour) is reported as 60 % of control, the T/C (endpoint: mean tumor weight, dose: 62.5 mg/kg/injection, schedule: Q01DX011 (ip), vehicle: saline, higher = larger tumour) is reported as 79 % of control and the T/C (endpoint: mean tumor weight, dose: 125.0 mg/kg/injection, schedule: Q01DX011 (ip), vehicle: saline, higher = larger tumour) is reported as 49 % of control. The T/C (endpoint: mean tumor weight, dose: 250.0 mg/kg/injection, schedule: Q01DX011 (ip), vehicle: saline, higher = larger tumour) was 18 % of control.
In the case of `CC1=C2C(=C[C@@](C)(CO)[C@@H]2O)C(=O)[C@](C)(O)C12CC2`, the T/C (endpoint: mean tumor weight, dose: 0.05 mg/kg/injection, schedule: Q01DX011 (ip), vehicle: saline, higher = larger tumour) is reported as 113 % of control, the T/C (endpoint: mean tumor weight, dose: 0.1 mg/kg/injection, schedule: Q01DX011 (ip), vehicle: saline, higher = larger tumour) is reported as 102 % of control and the T/C (endpoint: mean tumor weight, dose: 0.2 mg/kg/injection, schedule: Q01DX011 (ip), vehicle: saline, higher = larger tumour) is reported as 92 % of control. The T/C (endpoint: mean tumor weight, dose: 0.4 mg/kg/injection, schedule: Q01DX011 (ip), vehicle: saline, higher = larger tumour) was 19 % of control and 41 % of control and the T/C (endpoint: mean tumor weight, dose: 0.6 mg/kg/injection, schedule: Q01DX011 (ip), vehicle: saline, higher = larger tumour) was 20 % of control.
In the case of `CC(C)NCC(O)COc1cccc2ccccc12` (centres undefined), the T/C (endpoint: median survival time, dose: 2.0 mg/kg/injection, schedule: Q01DX009 (ip), vehicle: Klucel (hydroxypropylcellulose) (HPC), higher = longer survival) is reported as 95 % of control and 110 % of control, the T/C (endpoint: median survival time, dose: 2.0 mg/kg/injection, schedule: Q02DX009 (ip), vehicle: Klucel (hydroxypropylcellulose) (HPC), higher = longer survival) is reported as 123 % of control and the T/C (endpoint: median survival time, dose: 4.0 mg/kg/injection, schedule: Q02DX009 (ip), vehicle: Klucel (hydroxypropylcellulose) (HPC), higher = longer survival) is reported as 95 % of control and 107 % of control. For the same compound, the T/C (endpoint: median survival time, dose: 8.0 mg/kg/injection, schedule: Q02DX009 (ip), vehicle: Klucel (hydroxypropylcellulose) (HPC), higher = longer survival) was 100 % of control and 108 % of control, the T/C (endpoint: median survival time, dose: 16.0 mg/kg/injection, schedule: Q02DX009 (ip), vehicle: Klucel (hydroxypropylcellulose) (HPC), higher = longer survival) was 92 % of control and 111 % of control and the T/C (endpoint: median survival time, dose: 32.0 mg/kg/injection, schedule: Q02DX009 (ip), vehicle: Klucel (hydroxypropylcellulose) (HPC), higher = longer survival) was 90 % of control and 105 % of control. The T/C (endpoint: median survival time, dose: 64.0 mg/kg/injection, schedule: Q02DX009 (ip), vehicle: Klucel (hydroxypropylcellulose) (HPC), higher = longer survival) was 101 % of control and 118 % of control.
With `CNS(=O)(=O)c1ncnc2nc[nH]c12` the T/C (endpoint: mean tumor weight, dose: 22.0 mg/kg/injection, schedule: Q01DX011 (ip), vehicle: carboxymethylcellulose (CMC), higher = larger tumour) was 61 % of control, the T/C (endpoint: mean tumor weight, dose: 35.0 mg/kg/injection, schedule: Q01DX011 (ip), vehicle: carboxymethylcellulose (CMC), higher = larger tumour) was 62 % of control and the T/C (endpoint: mean tumor weight, dose: 50.0 mg/kg/injection, schedule: Q01DX011 (ip), vehicle: carboxymethylcellulose (CMC), higher = larger tumour) was 56 % of control.
